Paper PMC9138141, “Design, Spectral Characteristics, Photostability, and Possibilities for Practical Application of BODIPY FL-Labeled Thioterpenoid” (Bioengineering, 2022)

Columns and labels:
[1] = Solubility in water / micellar solution (NMR samples); assay type: physicochemical; details: DPC micelles, D2O
[2] = Photobleaching (photodegradation) under UV irradiation at 365 nm; assay type: physicochemical
Experimental: The photofading was carried out in quartz cells. The BODIPY solutions in cyclohexane (toluene, 1-octanol, DMSO with c = ~1·10^−5 mol·L^−1) were irradiated with monochromatic light (mercury lamp 250 W with a light filter Carl Zeiss JENA, at λ = 365 nm and room temperature). The area of the light flux was 2.02 cm^2 at a specific power W365 = 4.04 mW·cm^−2 of the UV lamp. The irreversible bleaching of the luminophores at the absorption peak was monitored as a function of time. The EAS of the dye solution was recorded at equal intervals of irradiation (through 5–20 min) on a spectrofluorometer SM2203 in the 300–600 nm wavelength range. The half-life (t1/2) was defined as the time during which the chromophore is destroyed by 50%. The error in determining of t1/2 is 3–5%.
The observed photooxidation rate constants (kobs) were determined by the equation ln(At/A0) = kobs∙t, where A0 and At are the initial and current optical density at the maximum of the long-wavelength absorption band, respectively, and t is the time of irradiation of the sample with UV light.

[3] = Luminescent characteristics (fluorescence) in organic solvents; assay type: physicochemical; details: for λmaxfl: λex 470 nm
Experimental: (§1) The absorption and emission spectra of dyes solutions (in the range of 10^−6 to 10^−5 M) were recorded on CM 2203 spectrofluorometer (SOLAR) in a 10 mm of absorbing layer thickness at T = 25 ± 0.1 °C. The fluorescence quantum yield (φ), the fluorescence lifetime (τ), the rate constants of radiative processes (krad), and-radiative deactivation (knr) were obtained to use by the standard procedure. The fluorescence quantum yields (φ) of compounds were measured using the standard method (using standard Rhodamine 6G). The φ and τ errors were 10–15 %. The Stokes shift ( ΔλSt ) was calculated by the formula: […]

[4] = system: RBC; experiment: Uptake by erythrocytes visualized with CytoFLEX; assay type: cell-based, mice; details: 0.1 µM, 10 min, 488/521 nm λex/λem
Experimental: The uptake of compounds by erythrocytes was visualized using CytoFLEX SRT (Beckman Coulter) (0.2% suspension of RBC, compound concentration 0.1 μM), exposure time 10 min. Each experiment was carried out in 5–15 replicates. Statistical analysis was conducted using Microsoft Office Excel 2007 software packages. The data represent the mean ± SE.

[5] = system: laboratory mice erythrocytes; experiment: Hemolytic activity (erythrotoxicity); assay type: cell-based; details: 20 µM, entire incubation period 5 h, 37 °C, PBS pH 7.4
Experimental: A 0.5% (v/v) suspension of laboratory mice erythrocytes in phosphate-buffered saline (PBS, pH 7.4) was used. The hemolytic activity (erythrotoxicity) of the compounds 2 and 6 was assessed by the degree of erythrocyte hemolysis 1, 3, and 5 h after the addition of solutions of the test compounds in DMSO (final concentration 20 μM). The erythrocyte suspension was incubated in a thermostatic shaker Biosan ES-20 with slow stirring at 37 °C temperature for 5 h. After 1, 3, and 5 h, an aliquot was taken, centrifuged, the degree of hemolysis was determined by the hemoglobin content in the supernatant on a Thermo Spectromic Genesys 20 spectrophotometer at λ = 541 nm. The percentage of hemolysis was calculated relative to the total hemolysis of the sample.

[6] = system: laboratory mice erythrocytes; experiment: Penetration into RBC (fluorescence of hemolysates and of residual medium); assay type: cell-based
Experimental: To assess the rate of penetration of the BODIPY 2 and its conjugate with a thioterpenoid 6 into RBC, the compounds were added to a suspension of erythrocytes (final concentration 20 μM) and incubated in a thermostatic shaker Biosan ES-20 with slow stirring at 37 °C. After 10, 30, and 60 min, an aliquot was taken and centrifuged to separate erythrocytes from the incubation medium containing the BODIPY 2 or conjugate 6. Erythrocytes were washed three times with PBS, hemolyzed by adding H2O, DMSO was added, and the fluorescence spectra of hemolysates were studied using a Fluorat-02-Panorama spectrofluorometer (Lumex, Saint Petersburg, Russia). The binding of the BODIPY 2 or conjugate 6 to cells was judged from the fluorescence intensity of the corresponding compounds in hemolysates. DMSO was added to the medium (PBS) remaining after cell incubation, and the corresponding fluorescence spectra were also analyzed. Its intensity was used to judge the residual content of the studied compounds in PBS.

[7] = Electronic absorption spectra in organic solvents; assay type: physicochemical
Experimental: as §1

[8] = range over the solvents studied

SMILES: CC1(C)C2CC=C(CO)C1C2 (stereo not shown) [myrtenol]
- solubility in the micellar solution [1]: better solubility

SMILES: CC1=CC(C)=[N+]2C1=C(CCCC(=O)OCCSC1CC3CCC1(C)C3(C)C)c1c(C)cc(C)n1[B-]2(F)F (stereo not shown) [Compound 6]
- increase of photodegradation (photooxidation) efficiency in DMSO ([2]; DMSO compared to cyclohexane): > 10 times
- increase of photostability compared to the meso-unsubstituted analog ([2]; UV irradiation): ~ 2 times
- half-life increase / photodestruction rate constant decrease compared to 7 ([2]; studied solvents): 1.5–2.2 times
- ΔλSt, Stokes shift ([3]; 1-butanol): 15 nm
- φ, fluorescence quantum yield ([3]; 1-butanol): 0.884
- λmaxfl ([3]; 1-butanol): 516 nm
- ΔλSt, Stokes shift ([3]; 1-octanol): 13 nm
- φ, fluorescence quantum yield ([3]; 1-octanol): 0.941
- λmaxfl ([3]; 1-octanol): 514 nm
- ΔλSt, Stokes shift ([3]; 1-propanol): 14 nm
- φ, fluorescence quantum yield ([3]; 1-propanol): 0.861
- λmaxfl ([3]; 1-propanol): 514 nm
- ΔλSt, Stokes shift ([3]; DMF): 16 nm
- φ, fluorescence quantum yield ([3]; DMF): 0.833
- increase of nonradiative deactivation constant knr ([3]; DMF and DMSO compared to cyclohexane): 200–300 times
- λmaxfl ([3]; DMF): 515 nm
- ΔλSt, Stokes shift ([3]; DMSO): 15 nm
- φ, fluorescence quantum yield ([3]; DMSO): 0.763
- λmaxfl ([3]; DMSO): 515 nm
- fluorescence quantum yield φ, range ([3]; at 514–519 nm, organic solvents): 76–100%
- ΔλSt, Stokes shift ([3]; chloroform): 14 nm
- φ, fluorescence quantum yield ([3]; chloroform): 0.878
- λmaxfl ([3]; chloroform): 517 nm
- ΔλSt, Stokes shift ([3]; cyclohexane): 13 nm
- φ, fluorescence quantum yield ([3]; cyclohexane): 0.999
- λmaxfl ([3]; cyclohexane): 515 nm
- fluorescence quenching ([3]; electron-donating media): 16–24%
- ΔλSt, Stokes shift ([3]; ethanol): 16 nm
- φ, fluorescence quantum yield ([3]; ethanol): 0.857
- increase of fluorescence quantum yield in the homologous series of alcohols ([3]; ethanol, 1-propanol, 1-butanol, 1-octanol): ~ 8%
- λmaxfl ([3]; ethanol): 514 nm
- constants of radiative processes (krad) [3, 8]: 5.96–8.33 × 10^7 s^−1
- fluorescence lifetime [3, 8]: 10.2–16.0 ns
- ΔλSt, Stokes shift ([3]; toluene): 16 nm
- φ, fluorescence quantum yield ([3]; toluene): 0.867
- λmaxfl ([3]; toluene): 519 nm
- emission band maxima λmaxfl, range ([3]; λex = 470 nm, all solvents): 510–519 nm
- relative content of BODIPY-positive cells [4]: more than an order of magnitude higher
- hemolysis of RBC (erythrotoxicity) [5]: did not exceed the spontaneous level
- penetration into erythrocytes (fluorescence of RBC hemolysates) ([6]; 20 μM, 10, 30, 60 min incubation, RBC washed three times with PBS): actively penetrates erythrocytes
- absorption by RBC from the incubation medium (decline of supernatant fluorescence) ([6]; 20 μM, 60 min incubation, PBS): more intensively than the initial BODIPY 2
- ε, molar absorption coefficient ([7]; 1-butanol): 66887 L/mol/cm
- λmaxabs S0→S1 ([7]; 1-butanol): 501 nm
- λmaxabs S0→S2 ([7]; 1-butanol): 355–366 nm
- ε, molar absorption coefficient ([7]; 1-octanol): 68275 L/mol/cm
- λmaxabs S0→S1 ([7]; 1-octanol): 501 nm
- λmaxabs S0→S2 ([7]; 1-octanol): 355–363 nm
- ε, molar absorption coefficient ([7]; 1-propanol): 68931 L/mol/cm
- λmaxabs S0→S1 ([7]; 1-propanol): 500 nm
- λmaxabs S0→S2 ([7]; 1-propanol): 356–361 nm
- ε, molar absorption coefficient ([7]; DMF): 70218 L/mol/cm
- λmaxabs S0→S1 ([7]; DMF): 499 nm
- λmaxabs S0→S2 ([7]; DMF): 357–361 nm
- ε, molar absorption coefficient ([7]; DMSO): 68188 L/mol/cm
- λmaxabs S0→S1 ([7]; DMSO): 500 nm
- λmaxabs S0→S2 ([7]; DMSO): 355–360 nm
- extinction coefficient ɛ, range ([7]; at 498–503 nm, organic solvents, in L/mol·cm): 64,000–78,000
- ε, molar absorption coefficient ([7]; chloroform): 76900 L/mol/cm
- λmaxabs S0→S1 ([7]; chloroform): 503 nm
- λmaxabs S0→S2 ([7]; chloroform): 352–363 nm
- ε, molar absorption coefficient ([7]; cyclohexane): 75390 L/mol/cm
- λmaxabs S0→S1 ([7]; cyclohexane): 502 nm
- λmaxabs S0→S2 ([7]; cyclohexane): 357–362 nm
- ε, molar absorption coefficient ([7]; ethanol): 64235 L/mol/cm
- λmaxabs S0→S1 ([7]; ethanol): 498 nm
- λmaxabs S0→S2 ([7]; ethanol): 359–361 nm
- ε, molar absorption coefficient ([7]; toluene): 78830 L/mol/cm
- λmaxabs S0→S1 ([7]; toluene): 503 nm
- λmaxabs S0→S2 ([7]; toluene): 352–360 nm
